Measured values reported in patent US20110123617A1, “CLIOQUINOL FOR THE TREATMENT OF HEMATOLOGICAL MALIGNANCIES” (priority 2007, published 2011).

Assays:
K562 leukemia cells = assay: K562 leukemia xenograft; assay type: in vivo, mouse; conditions: 100 mg/kg for 5 of 7 days, subcutaneous K562
Text: Similar results were obtained with a K562 leukemia xenograft.

cyclin D2 = assay: Immunoblotting of cyclin D2 in myeloma and leukemia cells; assay type: cell-based; conditions: low micromolar concentrations
Text: A) Effect of increasing concentrations of clioquinol on LP1 and MY5 multiple myeloma cells at twenty hours after clioquinol treatment; determined by SDS-PAGE immunoblotting. B) Effect of increasing concentrations of clioquinol on the G0/G1 ratio in AML3, U937, LP1 and MY5 cells at twenty hours after clioquinol treatment; determined by PI staining and flow cytometry. To prepare cytosolic extracts, NIH3T3 cells and myeloma cells were washed with phosphate-buffered saline (PBS, pH 7.4) and suspending in lysis buffer [10 mM Tris (pH 7.4), 150 mM NaCl, 0.1% Triton X-100, 0.5% sodium deoxycholate, and 5 mM EDTA] containing protease inhibitors (Complete tablets, Roche, Indianapolis, Ind.). Protein concentrations were determined by the Bradford assay. Immunoblot assays were performed by subjecting equal amounts of protein to SDS-PAGE gels followed by transfer to Nitrocellulose membranes. Membranes were probed with polyclonal rabbit anti-human cyclin D2 (0.5 μg/ml, both from Santa Cruz Biotech, Santa Cruz, Calif.), or monoclonal mouse-anti human p21 (1:200 v/v, Santa Cruz Biotech), monoclonal mouse-anti human p27 (1:2,500 v/v BD Transduction Laboratories), polyclonal mouse-anti human ubiquitin (1:2,000 v/v Calbiochem) and monoclonal mouse-anti-β-actin (1:10,000 v/v) (Sigma, St. Lois, Mo.). […] Detection was performed by the Enhanced Chemical Luminescence (ECL) method (Pierce, Rockford, Ill.).

[1] = tested on: MDAY-D2 murine leukemia cells
Experimental: DBA-2 mice were injected intraperitoneally with MDAY-D2 murine leukemia cells. Mice were then treated twice daily by oral gavage with clioquinol (100 mg/kg) dissolved in intralipid or intralipid control. Ten days after treatment, mice were sacrificed, the intraperitoneal tumor excised, and the weight and volume of the tumor measured.
MDAY-D2 leukemia cells were injected intraperitoneally into DBA2 mice. Mice were then treated twice daily with oral clioquinol (100 mg/kg) for 10 days. Ten days after treatment, mice were sacrificed and the weight and volume of the intraperitoneal tumor was measured (FIG. 7). […] K562 leukemia cells were injected subcutaneous into sublethally irradiated […] mice. The clioquinol treatment was initiated when tumors reached volumes of 200 mm^3 at which time mice were randomized to receive 100 mg/kg of clioquinol (treated group) or buffer control (untreated group) for 5 of 7 days. Caliper measurements were performed twice weekly to estimate tumor volume and differences compared between treated and untreated groups.

[2] = tested on: chymotrypsin-like activity of the proteasome; assay: Proteasome activity after treatment of intact cell lines; assay type: cell-based; conditions: intact leukemia and myeloma cell lines
Experimental: A) Proteasome activity of MDAY-D2 and JJN3 cellular extracts after two hours of treatment with clioquinol (CQ), CuCl2 (Cu), or an equimolar concentration of CQ and Cu. After treatment, the preferential chymotrypsin-like substrate Suc-LLVY-AMC was added and the rate of free AMC was measured over time with a florescent spectrophotometric plate reader (excitation=380 nm, emission=460 nm). B) Proteasome activity of intact MDAY-D2 and JJN3 cells after two hours of treatment with clioquinol (CQ), CuCl2 (Cu), or an equimolar concentration of CQ and Cu. After treatment, the preferential chymotrypsin-like substrate Suc-LLVY-AMC was added and the rate of free AMC was measured over time with a florescent spectrophotometric plate reader (excitation=380 nm, emission=460 nm). Cellular proteins were extracted from cells with lysis buffer (50 mM HEPES pH 7.5, 150 mM NaCl, 2 mM ATP, and 1% Triton X-100). The chymotrypsin-like activity of the proteasome was measured by incubating equal amounts of protein with the preferential chymotrypsin-like substrate Suc-LLVY-AMC in assay buffer (50 mM Tris-HCl, pH 7.5, 150 mM NaCl) for two hours. After incubation, […] and the rate of free AMC was measured over time with a florescent spectrophotometric plate reader (excitation=380 nm, emission=460 nm). […]

ubiquitinated proteins = assay: Immunoblotting of ubiquitinated proteins; assay type: cell-based; conditions: leukemia and myeloma cells
Experimental: Effect of increasing concentrations of clioquinol on LP1 and MY5 multiple myeloma cells at twenty hours after clioquinol treatment; determined by SDS-PAGE immunoblotting. To prepare cytosolic extracts, NIH3T3 cells and myeloma cells were washed with phosphate-buffered saline (PBS, pH 7.4) and suspending in lysis buffer [10 mM Tris (pH 7.4), 150 mM NaCl, 0.1% Triton X-100, 0.5% sodium deoxycholate, and 5 mM EDTA] containing protease inhibitors (Complete tablets, Roche, Indianapolis, Ind.). Protein concentrations were determined by the Bradford assay. Immunoblot assays were performed by subjecting equal amounts of protein to SDS-PAGE gels followed by transfer to Nitrocellulose membranes. Membranes were probed with polyclonal rabbit anti-human cyclin D2 (0.5 μg/ml, both from Santa Cruz Biotech, Santa Cruz, Calif.), or monoclonal mouse-anti human p21 (1:200 v/v, Santa Cruz Biotech), monoclonal mouse-anti human p27 (1:2,500 v/v BD Transduction Laboratories), polyclonal mouse-anti human ubiquitin (1:2,000 v/v Calbiochem) and monoclonal mouse-anti-β-actin (1:10,000 v/v) (Sigma, St. Lois, Mo.). Secondary antibodies (Amersham Bioscience UK, Little Chalfont, England) were horseradish peroxidase (HRP)-conjugated goat anti-mouse IgG (1:10,000 v/v) and anti-rabbit (1:5,000 v/v). Detection was performed by the Enhanced Chemical Luminescence (ECL) method (Pierce, Rockford, Ill.).

[3] = tested on: AML3, U937, LP1 and MY5 cells; assay: Cell cycle analysis (PI staining and flow cytometry); assay type: cell-based; conditions: low micromolar concentrations
Experimental: A) Effect of increasing concentrations of clioquinol on LP1 and MY5 multiple myeloma cells at twenty hours after clioquinol treatment; determined by SDS-PAGE immunoblotting. B) Effect of increasing concentrations of clioquinol on the G0/G1 ratio in AML3, U937, LP1 and MY5 cells at twenty hours after clioquinol treatment; determined by PI staining and flow cytometry. Cells were harvested, washed with cold PBS, suspended in 70% cold ethanol and incubated overnight at −20° C. Cells were then treated with 100 ng/ml of DNase-free RNase (InvitroGen) at 37° C. for 30 min, washed with cold PBS, and resuspended in PBS with 50 μg/ml of propidium iodine. DNA content was analyzed by flow cytometry (FACSCalibur, Becton Dickinson, Fla., USA). The percentage of cells in each phase of the cell cycle was calculated with ModiFit software (Becton Dickinson).

SMILES: Oc1c(I)cc(Cl)c2cccnc12 [clioquinol, 5-chloro-7-iodo-8-hydroxyquinoline]
- tumor growth (tumor volume) (K562 leukemia cells): delayed tumor growth
- levels of cyclin D2 (cyclin D2): reduced levels of cyclin D2
- tumor progression (weight and volume of intraperitoneal tumor) ([1]; 100 mg/kg oral twice daily for 10 days): delayed tumor progression
- tumor weight ([1]; in vivo mouse model of leukemia): dramatically reduces tumor weight
- chymotrypsin-like activity of the proteasome [2]: inhibited chymotrypsin-like activity at low micromolar concentrations
- amount of ubiquitinated protein (ubiquitinated proteins): increased the amount of ubiquitinated protein
- cell cycle arrest [3]: arrested cells in the G1 phase
